Results published in the supplement of paper PMC10307832.

What was measured:
Assay in all cases: relative viability (nuclei count vs DMSO), 5 days (fraction); higher = more cells survive
QS11 + Luminespib = compound: C1CC2=C(C1)C=C(C=C2)OC3=NC(=C4C(=N3)N(C=N4)CC5=CC=C(C=C5)C6=CC=CC=C6)N[C@@H](CC7=CC=CC=C7)CO [QS11] + CCNC(=O)c1noc(-c2cc(C(C)C)c(O)cc2O)c1-c1ccc(CN2CCOCC2)cc1 [Luminespib] (partner 0.01 µM)
Procedure, shortened: (§1)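 Relative viability divides the nuclei count in treated wells by that in vehicle wells. Lung cancer cell lines were seeded in 1536-well plates, dosed by pin tool the next day, and fixed and stained after 5 days in one step with final 0.05% Triton X-100, 1% formaldehyde and 1 ug/ml Hoechst. Dosing was a single drug or a fixed anchor-drug dose plus five library-drug doses (not always all listed) in √10 steps, and values are medians of duplicate plates imaged at 4×.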

QS11 + Pictilisib = compound: C1CC2=C(C1)C=C(C=C2)OC3=NC(=C4C(=N3)N(C=N4)CC5=CC=C(C=C5)C6=CC=CC=C6)N[C@@H](CC7=CC=CC=C7)CO [QS11] + CS(=O)(=O)N1CCN(Cc2cc3nc(-c4cccc5[nH]ncc45)nc(N4CCOCC4)c3s2)CC1 [Pictilisib] (partner 1 µM)
Procedure, shortened: as §1

QS11 + Bortezomib = compound: C1CC2=C(C1)C=C(C=C2)OC3=NC(=C4C(=N3)N(C=N4)CC5=CC=C(C=C5)C6=CC=CC=C6)N[C@@H](CC7=CC=CC=C7)CO [QS11] + CC(C)C[C@H](NC(=O)[C@H](Cc1ccccc1)NC(=O)c1cnccn1)B(O)O [Bortezomib] (partner 0.002 µM)
Procedure, shortened: as §1

[1] = compound: C[As](C)SC[C@H](NC(=O)CC[C@H](N)C(=O)O)C(=O)NCC(=O)O [Darinaparsin] + CC(=O)Nc1cccc(-n2c(=O)n(C3CC3)c(=O)c3c(Nc4ccc(I)cc4F)n(C)c(=O)c(C)c32)c1 [Trametinib] (partner 0.02 µM)
Procedure, shortened: as §1

| Cell Line | relative viability (QS11 + Luminespib; first compound 0.08 µM) | relative viability (QS11 + Luminespib; first compound 0.253 µM) | relative viability (QS11 + Luminespib; first compound 0.8 µM) | relative viability (QS11 + Luminespib; first compound 2.53 µM) | relative viability (QS11 + Luminespib; first compound 8 µM) | relative viability (QS11 + Pictilisib; first compound 0.08 µM) | relative viability (QS11 + Pictilisib; first compound 0.253 µM) | relative viability (QS11 + Pictilisib; first compound 0.8 µM) | relative viability (QS11 + Pictilisib; first compound 2.53 µM) | relative viability (QS11 + Pictilisib; first compound 8 µM) | relative viability (QS11 + Bortezomib; first compound 0.08 µM) | relative viability (QS11 + Bortezomib; first compound 0.253 µM) | relative viability (QS11 + Bortezomib; first compound 0.8 µM) | relative viability (QS11 + Bortezomib; first compound 2.53 µM) | relative viability (QS11 + Bortezomib; first compound 8 µM) | relative viability ([1]; first compound 0.08 µM) | relative viability ([1]; first compound 0.8 µM) | relative viability ([1]; first compound 2.53 µM) | relative viability ([1]; first compound 8 µM) |
| --- | --- | --- | --- | --- | --- | --- | --- | --- | --- | --- | --- | --- | --- | --- | --- | --- | --- | --- | --- |
| 201T | 1.08 | 1.12 | 0.815 | 1.01 | 0.692 | 0.669 | 0.599 | 0.634 | 0.672 | 0.611 | 1.12 | 1.09 | 0.921 | 1.16 | 0.961 | 0.777 | 0.728 | 0.711 | 0.751 |
| A549 |  |  |  |  |  | 0.623 | 0.558 | 0.396 | 0.41 | 0.208 |  |  |  |  |  |  |  |  |  |
| A-427 | 0.918 | 0.885 |  | 1.02 | 1.05 | 0.546 | 0.788 |  | 0.608 | 0.824 | 0.852 | 0.96 |  | 0.999 | 0.858 | 0.721 | 0.663 | 0.758 | 0.796 |
| ABC-1 | 0.656 | 0.861 |  | 0.828 | 0.842 | 0.657 | 0.6 | 0.651 | 0.764 | 1.06 | 0.309 | 0.399 | 0.319 | 0.324 | 0.278 |  |  |  |  |
| BEN | 0.241 | 0.567 | 0.366 | 0.507 | 0.31 | 0.554 | 0.641 | 0.529 | 0.524 | 0.705 | 0.635 | 1.01 | 1.07 | 0.916 | 1.07 | 1.18 | 0.998 | 0.991 | 1.12 |
| CAL-12T | 0.608 | 0.578 | 0.478 | 0.362 | 0.551 | 0.446 | 0.412 | 0.665 | 0.314 | 0.38 | 0.893 | 0.865 | 0.809 | 1.07 | 1.03 | 0.333 | 0.376 | 0.383 | 0.306 |
| COR-L23 | 0.718 | 0.683 | 0.673 | 0.552 | 0.576 | 0.807 | 0.717 | 0.806 | 0.662 | 0.681 | 1.08 | 1.13 | 0.86 | 0.942 | 0.765 | 0.699 | 0.581 | 0.538 | 0.681 |
| COR-L 105 | 0.838 | 0.7 | 0.649 | 0.776 | 0.664 | 0.346 | 0.359 | 0.34 | 0.372 | 0.347 | 0.78 | 0.814 | 0.772 | 0.717 | 0.519 | 0.473 | 0.456 | 0.427 | 0.45 |
| Calu-6 |  |  |  |  |  | 1.02 | 0.907 | 0.918 | 1.15 | 1 | 1.12 | 1.07 | 0.953 | 1.06 | 0.817 |  |  |  |  |
| ChaGo-K-1 | 0.506 | 0.609 | 0.679 | 0.664 | 0.655 |  | 0.841 | 0.882 | 1.24 | 1.05 |  | 1.01 | 1.17 | 1.25 | 1.09 | 0.914 | 0.862 | 0.785 | 0.984 |
| EBC-1 |  |  |  |  |  | 0.331 | 0.266 | 0.404 | 0.454 | 0.478 | 0.535 | 0.444 | 0.479 | 0.408 | 0.271 |  |  |  |  |
| EKVX | 0.907 | 0.732 |  | 0.848 | 1.03 | 0.444 | 0.379 |  | 0.413 | 0.467 | 0.941 | 1.09 |  | 1.07 | 1.1 | 0.339 | 0.33 | 0.344 | 0.333 |
| EMC-BAC-2 | 1.28 | 1.27 | 0.817 | 0.953 | 0.961 | 0.535 | 0.486 | 0.569 | 0.604 | 0.442 | 1.06 | 1.05 | 0.941 | 0.985 | 0.677 | 0.909 | 0.802 | 1.01 | 0.887 |
| EPLC-272H |  | 0.269 | 0.311 | 0.385 | 0.284 | 0.372 | 0.347 | 0.298 | 0.387 | 0.274 | 0.954 | 0.947 | 0.81 | 0.946 | 0.798 | 0.292 | 0.311 | 0.31 | 0.305 |
| H3255 | 0.818 | 1.06 |  | 0.966 | 0.961 | 0.37 | 0.523 |  | 0.541 | 0.537 | 0.813 | 0.782 |  | 0.761 | 0.746 | 0.595 | 0.812 | 0.574 | 0.62 |
| HARA | 0.675 | 0.747 |  | 0.845 | 1.19 | 0.358 | 0.46 |  | 0.383 | 0.36 | 1.25 | 1.19 |  | 1.05 | 1.24 | 0.825 |  | 0.733 | 0.638 |
| HCC-15 | 0.334 | 0.311 | 0.332 | 0.341 | 0.389 | 0.732 | 0.868 |  | 0.816 | 0.719 | 1.06 | 1.16 |  | 1.03 | 0.982 | 0.409 | 0.321 | 0.27 | 0.415 |
